ChEMBL document CHEMBL3638977, “Heteroaryl sodium channel inhibitors” (2015)

Molecular target: Sodium channel protein type 9 subunit alpha (Homo sapiens, UniProt Q15858)
Experiment: In Vitro Assay: 293 cells stably transfected with either Nav 1.7 or with Nav 1.5 were recorded in population patch-clamp mode with the IonWorks® Quattro automated electrophysiology system in accordance with the manufacturer's specifications (Molecular Devices, LLC, Sunnyvale, Calif.). Sodium channel currents were measured in response to a train of depolarizations that induced successively greater inactivation.Cells were held at −110 mV for three seconds (Nav 1.7) or half a second (Nav 1.5) from a holding voltage of −15 mV, then put through a series of 26 pulses of 150 msec duration to −20 mV at a frequency of 5 Hz. Cells were then left unclamped for a period of 3 to 8 minutes while a single concentration of test compound was added. Cells were then reclamped and put through the same voltage protocol. Current at the end of the 26th pulse to −20 mV was subtracted from the peak current evoked by the 26th pulse to −20 mV to correct for leak current.
Type: cell-based

Sequence of Sodium channel protein type 9 subunit alpha (Q15858 whole entry): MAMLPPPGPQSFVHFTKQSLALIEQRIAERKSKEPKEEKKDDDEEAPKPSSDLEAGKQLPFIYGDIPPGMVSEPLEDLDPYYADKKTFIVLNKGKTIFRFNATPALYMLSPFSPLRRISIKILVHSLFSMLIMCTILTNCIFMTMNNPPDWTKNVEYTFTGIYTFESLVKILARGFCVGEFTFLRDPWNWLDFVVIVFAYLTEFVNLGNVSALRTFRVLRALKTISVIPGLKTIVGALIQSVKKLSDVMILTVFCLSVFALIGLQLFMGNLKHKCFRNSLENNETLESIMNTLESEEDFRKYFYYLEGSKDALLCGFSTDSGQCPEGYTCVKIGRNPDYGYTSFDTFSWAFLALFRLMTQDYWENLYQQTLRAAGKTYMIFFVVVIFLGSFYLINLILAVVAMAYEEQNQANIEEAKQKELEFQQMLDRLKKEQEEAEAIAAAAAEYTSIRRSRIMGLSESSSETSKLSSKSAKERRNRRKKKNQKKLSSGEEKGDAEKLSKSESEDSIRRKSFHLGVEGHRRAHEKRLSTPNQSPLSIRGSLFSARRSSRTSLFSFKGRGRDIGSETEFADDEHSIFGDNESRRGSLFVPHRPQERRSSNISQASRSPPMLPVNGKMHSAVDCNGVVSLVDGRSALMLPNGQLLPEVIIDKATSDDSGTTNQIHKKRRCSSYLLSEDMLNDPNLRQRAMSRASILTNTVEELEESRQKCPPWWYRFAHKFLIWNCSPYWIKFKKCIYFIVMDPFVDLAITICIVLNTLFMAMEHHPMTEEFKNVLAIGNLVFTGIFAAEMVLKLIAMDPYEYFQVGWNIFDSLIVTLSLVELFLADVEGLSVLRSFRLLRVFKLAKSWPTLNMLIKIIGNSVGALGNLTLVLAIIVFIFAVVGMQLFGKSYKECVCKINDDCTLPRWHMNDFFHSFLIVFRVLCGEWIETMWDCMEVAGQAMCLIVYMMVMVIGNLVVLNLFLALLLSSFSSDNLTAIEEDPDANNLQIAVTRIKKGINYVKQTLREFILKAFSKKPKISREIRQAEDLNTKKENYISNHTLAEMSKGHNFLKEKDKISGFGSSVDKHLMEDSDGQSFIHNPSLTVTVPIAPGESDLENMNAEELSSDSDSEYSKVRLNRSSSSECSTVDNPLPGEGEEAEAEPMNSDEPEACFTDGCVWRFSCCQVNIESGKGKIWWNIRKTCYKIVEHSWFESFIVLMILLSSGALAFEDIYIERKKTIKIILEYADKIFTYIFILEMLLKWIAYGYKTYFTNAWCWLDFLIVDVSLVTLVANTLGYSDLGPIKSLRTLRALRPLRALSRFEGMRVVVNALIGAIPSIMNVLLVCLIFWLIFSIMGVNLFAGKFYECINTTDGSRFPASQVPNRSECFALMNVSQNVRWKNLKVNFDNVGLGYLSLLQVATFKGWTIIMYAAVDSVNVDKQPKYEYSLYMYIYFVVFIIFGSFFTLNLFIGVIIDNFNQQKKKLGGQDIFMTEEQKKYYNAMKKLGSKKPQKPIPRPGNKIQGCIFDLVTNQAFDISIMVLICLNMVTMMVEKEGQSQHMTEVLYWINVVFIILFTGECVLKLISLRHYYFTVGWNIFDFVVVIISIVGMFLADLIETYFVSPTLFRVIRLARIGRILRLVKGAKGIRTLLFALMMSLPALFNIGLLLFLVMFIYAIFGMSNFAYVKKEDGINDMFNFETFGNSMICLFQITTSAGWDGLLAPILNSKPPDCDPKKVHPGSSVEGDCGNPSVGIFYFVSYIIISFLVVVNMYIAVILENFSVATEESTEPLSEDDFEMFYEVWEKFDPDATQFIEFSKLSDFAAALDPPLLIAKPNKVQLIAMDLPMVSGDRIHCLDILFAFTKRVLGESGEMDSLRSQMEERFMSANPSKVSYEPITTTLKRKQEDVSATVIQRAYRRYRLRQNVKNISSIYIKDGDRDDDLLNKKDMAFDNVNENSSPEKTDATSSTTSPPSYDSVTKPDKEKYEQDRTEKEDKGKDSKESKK

## Cn1cc(-c2cccc3ccccc23)c2ccc(S(=O)(=O)Nc3ncns3)cc21
  IC50: 306 nM

## Cn1cc(-c2ccc(C(F)(F)F)c(Cl)c2)c2ccc(S(=O)(=O)Nc3ncns3)cc21
  IC50: 3190 nM

## COc1cc(F)ccc1-c1cn(C)c2cc(S(=O)(=O)Nc3ncns3)ccc12
  IC50: 338 nM

## COc1cc(OC)cc(-c2cn(C)c3cc(S(=O)(=O)Nc4ncns4)ccc23)c1
  IC50: 5960 nM

## Cn1cc(-c2ccc(F)c(C#N)c2)c2ccc(S(=O)(=O)Nc3ncns3)cc21
  IC50: 1280 nM

## Cn1cc(-c2ccc(C#N)c(F)c2)c2ccc(S(=O)(=O)Nc3ncns3)cc21
  IC50: 3060 nM

## Cn1cc(-c2ccc(OC(F)(F)F)cc2)c2ccc(S(=O)(=O)Nc3ncns3)cc21
  IC50: 4670 nM

## Cn1cc(-c2cccc(OC(F)(F)F)c2)c2ccc(S(=O)(=O)Nc3ncns3)cc21
  IC50: 870 nM

## Cn1cc(-c2cccc(C#N)c2)c2ccc(S(=O)(=O)Nc3ncns3)cc21
  IC50: 2000 nM

## Cn1cc(-c2ccccc2)c2ccc(S(=O)(=O)Nc3ncns3)cc21
  IC50: 1550 nM

## COc1ccc(-c2cn(C)c3cc(S(=O)(=O)Nc4ncns4)ccc23)c(OC)c1
  IC50: 904 nM

## Cn1cc(-c2cccc3ncccc23)c2ccc(S(=O)(=O)Nc3ncns3)cc21
  IC50: 663 nM

## Cn1cc(-c2cccc(S(C)(=O)=O)c2)c2ccc(S(=O)(=O)Nc3ncns3)cc21
  IC50: 528 nM

## COc1ccc(-c2cn(C)c3cc(S(=O)(=O)Nc4ncns4)ccc23)c2ccccc12
  IC50: 2640 nM

## COc1ccc(-c2cn(C)c3cc(S(=O)(=O)Nc4ncns4)ccc23)c(Cl)c1
  IC50: 2310 nM

## Cc1noc(C)c1-c1cn(C)c2cc(S(=O)(=O)Nc3ncns3)ccc12
  IC50: 2620 nM

## Cn1cc(-c2ccc(Br)cc2C(F)(F)F)c2ccc(S(=O)(=O)Nc3ncns3)cc21
  IC50: 3530 nM

## Cn1cc(-c2ccccc2C(F)(F)F)c2ccc(S(=O)(=O)Nc3ncns3)cc21
  IC50: 6000 nM

## Cc1cnc(N)c(-c2cn(C)c3cc(S(=O)(=O)Nc4ncns4)ccc23)c1
  IC50: 5950 nM

## Cc1cc(C#N)ccc1-c1cn(C)c2cc(S(=O)(=O)Nc3ncns3)ccc12
  IC50: 2350 nM

## CN(C)c1cccc(-c2cn(C)c3cc(S(=O)(=O)Nc4ncns4)ccc23)c1
  IC50: 4200 nM

## Cn1cc(-c2cccc(C(F)(F)F)c2)c2ccc(S(=O)(=O)Nc3ncns3)cc21
  IC50: 3810 nM

## COc1ccc(-c2cn(C)c3cc(S(=O)(=O)Nc4ncns4)ccc23)cc1C(F)(F)F
  IC50: 4480 nM

## Cn1nccc1-c1cn(C)c2cc(S(=O)(=O)Nc3ncns3)ccc12
  IC50: 7140 nM
